Experimental data reported in patent US20250051277A1, “DELIVERY OF THERAPEUTIC ALKALOID COMPOUNDS” (Sensorium Therapeutics, Inc., priority 2021, published 2025).
Read-outs that look alike come from different tables or passages of the source.

How the values were obtained:
[1] = format: physicochemical; details: DI water, 25° C., 0.5 mM
[2] = format: physicochemical; details: SGF with pepsin, pH 1.5, 37° C., 0.5 mM

Compound | Condition 2 Conversion (%) ([1]; time 1 min) | Condition 2 Conversion (%) ([1]; time 5 min) | Condition 2 Conversion (%) ([1]; time 30 min) | Condition 2 Conversion (%) ([1]; time 1 h) | Condition 2 Conversion (%) ([1]; time 4 h) | Condition 2 Conversion (%) ([1]; time 24 h) | Condition 1 Conversion (%) ([2]; time 1 min) | Condition 1 Conversion (%) ([2]; time 5 min) | Condition 1 Conversion (%) ([2]; time 30 min) | Condition 1 Conversion (%) ([2]; time 1 h) | Condition 1 Conversion (%) ([2]; time 4 h) | Condition 1 Conversion (%) ([2]; time 24 h)
COc1ccc(NC(=O)NN=C2CC[C@@]3(c4ccc(OC)c(OC)c4)CCN(C)[C@H]3C2)cc1 [Compound 254, 1-[[(3aS,7aS)-3a-(3,4-dimethoxyphenyl)-1-methyl-2,3,4,5,7,7a-hexahydroindol-6-ylidene]amino]-3-(4-methoxyphenyl)urea] | 0% | 0% | 0% | 1.1% | 16.2% | 17.6% | 0% | 2.4% | 84.7% | 91.9% | 91.9% | 92%
COc1ccc([C@@]23CCC(=NNC(=O)Nc4ccc(S(C)(=O)=O)cc4)C[C@@H]2N(C)CC3)cc1OC [Compound 255, 1-[[(3aS,7aS)-3a-(3,4-dimethoxyphenyl)-1-methyl-2,3,4,5,7,7a-hexahydroindol-6-ylidene]amino]-3-(4-methylsulfonylphenyl)urea] | 0% | 0% | 0% | 2.4% | 8.4% | 6% | 20.9% | 65.2% | 88.6% | 89.8% | 88.1% | 88%
COc1ccc([C@@]23CC/C(=N\NC(=O)NCCc4cccs4)C[C@@H]2N(C)CC3)cc1OC [Compound 256, 1-[[(3aS,7aS)-3a-(3,4-dimethoxyphenyl)-1-methyl-2,3,4,5,7,7a-hexahydroindol-6-ylidene]amino]-3-[2-(2-thienyl)ethyl]urea] | 0% | 0% | 0% | 0% | 43% | 0% | 0% | 0% | 100% | 100% | 23% | 100%
COc1ccc([C@@]23CC/C(=N\NC(=O)Nc4ccc(N5CCN(C)CC5)cc4)C[C@@H]2N(C)CC3)cc1OC [Compound 257, 1-[[(3aS,7aS)-3a-(3,4-dimethoxyphenyl)-1-methyl-2,3,4,5,7,7a-hexahydroindol-6-ylidene]amino]-3-[4-(4-methylpiperazin-1-yl)phenyl]urea] | 0% | 0% | 5% | 8% | 30% | 95% | 4.6% | 54.1% | 100% | 100% | 100% | 100%
COc1ccc([C@@]23CC/C(=N\NC(=O)NC[C@H]4CC[C@H](C(=O)O)CC4)C[C@@H]2N(C)CC3)cc1OC [Compound 258, 4-[[[[(3aS,7aS)-3a-(3,4-dimethoxyphenyl)-1-methyl-2,3,4,5,7,7a-hexahydroindol-6-ylidene]amino]carbamoylamino]methyl]cyclohexanecarboxylicacid] | 0% | 0% | 0% | 0% | 0% | 0% | 0% | 0% | 42.82% | 100% | 100% | 100%
